Here are results for 1 compound from patent publication US8846703B2, “Crystal of a free tricyclic pyrazolopyrimidine derivative” (Daiichi Sankyo Company, Limited, priority 2010, dated 2014).

Test [1] deals with human breast cancer cell line SK-BR-3. Put plainly: Cell growth inhibition assay (MTT), SK-BR-3. In kind it is cell-based. The note with it: SK-BR-3 cells, 72 hours, read-out: GI50 value (50% growth inhibitory concentration). The procedure: (§1) A cell growth inhibition assay was performed using two types of cells (human breast cancer cell line SK-BR-3 and human lung cancer cell line NCI-H460).
(§2) Cells of each type were suspended in a medium and seeded into a 96-well multi-well plate at 2000 cells/150 μL/well in the case of SK-BR-3 and at 500 cells/150 μL/well in the case of NCI-H460. Compound (I) was dissolved in DMSO, and this was diluted with medium to prepare a sample solution (DMSO concentration: 0.5% or less). On the day following the seeding, 50 μL of DMSO-containing medium to which the test compound was not added (hereinafter called DMSO diluted solution; DMSO concentration: 0.5% or less) or 50 μL of the sample solution was further added to the cells. An MTT assay was performed immediately after and 72 hours after adding the sample solution or the DMSO diluted solution to the cells. The MTT assay was performed as follows.
(§3) 5 mg/mL of an MTT (3-(4,5-dimethylthiazol-2-yl)-2,5-diphenyltetrazolium bromide) solution was added at 20 μL per well. Thereafter, the plate was incubated at 37° C. in 5% CO2 for four hours. The plate was centrifuged at 1200 rpm for five minutes, and then the culture supernatant was removed by suction using a dispenser. DMSO was added at 150 μL per well, and the generated formazan was dissolved. […] The absorbance of each well was measured using a plate reader at an OD of 540 nm with a reference of 660 nm. […]

Test [2] concerns human lung cancer cell line NCI-H460. As to the kind of experiment: Cell growth inhibition assay (MTT), NCI-H460. In kind it is cell-based. The note with it: NCI-H460 cells, 72 hours, read-out: GI50 value (50% growth inhibitory concentration). As for the experimental part:
as §1, §2, §3

Take `CNC(=O)CC1=Cc2nn(Cc3ncc(C)c(OC)c3Cl)c3nc(N)nc(c23)SC1` [Compound (1), 2-{4-amino-2-[(3-chloro-4-methoxy-5-methylpyridin-2-yl)methyl]-2,7-dihydro-6-thia-1,2,3,5-tetraazabenzo[cd]azulen-8-yl}-N-methylacetamide]: the values for the GI50 in test [1] and in test [2] were 13 nM and 26 nM, respectively.
